Consider 39 compounds from US8637237B2, “Methods, compositions, and systems for the identification of species-specific or developmental stage-specific insecticides” (The University of North Carolina at Greensboro, priority 2003, dated 2014).

The term IC50 denotes the concentration that inhibits the measured activity by half. The term EC50 denotes the concentration giving half of the maximal effect.

The target of the assay is T1, FXR (Rattus norvegicus, UniProt Q62735).
T1 sequence (Q62735 1-469): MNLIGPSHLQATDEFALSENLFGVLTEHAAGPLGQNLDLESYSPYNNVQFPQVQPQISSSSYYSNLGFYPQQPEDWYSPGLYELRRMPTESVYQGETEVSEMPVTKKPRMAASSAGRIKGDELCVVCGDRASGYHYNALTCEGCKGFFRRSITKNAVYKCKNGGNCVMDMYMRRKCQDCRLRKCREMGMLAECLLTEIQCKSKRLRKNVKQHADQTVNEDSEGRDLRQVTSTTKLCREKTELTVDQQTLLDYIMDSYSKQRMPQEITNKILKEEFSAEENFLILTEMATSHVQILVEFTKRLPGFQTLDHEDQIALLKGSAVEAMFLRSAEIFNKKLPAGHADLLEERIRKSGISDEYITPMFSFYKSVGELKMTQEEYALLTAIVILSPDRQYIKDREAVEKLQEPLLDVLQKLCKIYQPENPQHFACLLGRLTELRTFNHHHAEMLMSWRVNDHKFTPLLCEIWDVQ
T1 sequence (P28700 1-467 partner): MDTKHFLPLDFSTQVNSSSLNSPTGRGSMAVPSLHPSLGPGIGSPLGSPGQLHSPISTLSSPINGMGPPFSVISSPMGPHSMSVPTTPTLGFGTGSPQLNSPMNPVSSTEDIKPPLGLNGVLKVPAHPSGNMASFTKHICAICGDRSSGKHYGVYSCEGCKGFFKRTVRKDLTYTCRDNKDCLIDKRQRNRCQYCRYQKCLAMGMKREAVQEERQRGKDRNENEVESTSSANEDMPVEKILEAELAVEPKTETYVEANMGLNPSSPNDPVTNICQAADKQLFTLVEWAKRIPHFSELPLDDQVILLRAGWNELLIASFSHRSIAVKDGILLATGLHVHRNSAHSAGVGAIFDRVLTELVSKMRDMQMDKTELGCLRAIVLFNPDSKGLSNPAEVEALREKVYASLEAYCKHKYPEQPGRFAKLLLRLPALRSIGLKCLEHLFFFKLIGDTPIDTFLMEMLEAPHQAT
The experiment in a line: cell-based. On the procedure:
These experiments employed a mammalian cell culture system using Chinese hamster ovary cells (CHO) to evaluate the transcriptional function of Drosophila melanogaster EcR and USP using methods described previously (U.S. Patent Application Publication No: 2005/0049230; Henrich et al, 2003). Cells were seeded in 6-well polypropylene culture plates (Falcon) with 10^5 cells per well on the day prior to transfection. Transfection was subsequently performed using either calcium phosphate (Kitareewan et al., 1996, Mol. Biol. Cell, 7:1153-1196) or a GenePorter reagent (Gene Therapy Systems, Inc; San Diego, Calif.) following manufacturer's protocols. Each well received 1.25 μg of (EcRE)5-ΔMTV-CAT (five copies of the hsp27 EcRE inserted into an mouse mammary tumor virus (MTV) promoter upstream of the chloramphenicol acetyltransferase (CAT) gene) or (EcRE)5-ΔMTV-LUC (the same promoter attached to firefly luciferase), 1.25 μg of pCH111 (SV40 early promoter linked to the β-galactosidase gene) to normalize CAT activity, and 0.25 μg of each expression plasmid (EcR, FXR, RXR, USP) that was tested. The cells were incubated with plasmid DNA for seven hours and then washed with 1×PBS. Muristerone A (murA; Alexis Biochemicals) or 20-hydroxyecdysone (20E; Sigma) dissolved in ethanol to a concentration of 10 mM was diluted as necessary to the final assay concentration (FAC) in 2 ml of fresh incubation medium that was then applied to the cells. Similarly, JHIII (Sigma) was dissolved in dimethyl sulfoxide (DMSO) to a concentration of […] and diluted into the incubation medium to its final assay concentration (20, 40, 80, 160 μM). […] A corresponding volume of ethanol and DMSO were added to control cells for all experiments. For all experiments, the cells were allowed to incubate with the medium for 24 hours before collection and cell lysates were prepared by described methods (Kitareewan et al., 1996). Both β-galactosidase and CAT reporter activity were measured based on previously used methods (Kitareewan et al, 1996). Luciferase assays using luciferrin followed the specifications of the manufacturer.
Transcriptional activity, measured as ^14C-chloramphenicol counts (for measuring CAT activity) or relative luciferase activity (RLU) was quantified for each cell lysate. The counts were then normalized by adjusting for differences in β-galactosidase activity, since β-galactosidase expression is controlled by a constitutive promoter and provides an estimate of cell mass. Data were normalized as fold-induction based on differences in reporter gene activity between hormonally treated and control cells.
In these experiments, candidate juvenoids were tested for their ability to activate FXR mediated transcription by transfecting Chinese hamster ovary (CHO) cells using the FXR plasmid, mouse RXRα, and the ΔMTV-(EcRE)5-CAT reporter as described herein. An RXR-dependent CRBPII-CAT reporter plasmid was employed in parallel assays to discern activators specific for this receptor.

Where [1] appears, read: dose 20 μM, 1 = no increase over vehicle.

As to `CCOCn1c(-c2ccc(Cl)cc2)c(C#N)c(Br)c1C(F)(F)F` [chlorfenapyr], for the setting “25 μM”, the “FXR-dependent activity, induction” value was found to be 10 fold.

In the case of `CC(C)(O)/C=C/C(=O)[C@](C)(O)[C@H]1[C@H](O)C[C@@]2(C)[C@@H]3CC=C4[C@@H](C[C@H](O)C(=O)C4(C)C)[C@]3(C)C(=O)C[C@]12C` [cucurbitacin D], the “suppression of FXR-dependent activity promoted by CDCA” value (1 μM cucurbitacin D, 40 μM CDCA) was found to be 58 fold. In addition, for the setting “1 μM cucurbitacin D, 40 μM JH III”, the “suppression of FXR-dependent activity promoted by JH III” value is 7 fold.

Turning to `CC(C)(O)/C=C/C(=O)[C@](C)(O)[C@H]1[C@H](O)C[C@@]2(C)[C@@H]3CC=C4[C@@H](C=C(O)C(=O)C4(C)C)[C@]3(C)C(=O)C[C@]12C` [cucurbitacin I], the concentration for half-maximal inhibition (IC50) (read-out: IC50, inhibition of farnesol-induced FXR activity, data not shown) was around 0.05 µM.

On to `COc1cc(/C=C/C(=O)CC(=O)/C=C/c2ccc(O)c(OC)c2)ccc1O` [curcumin], for which, where the note is “dose not stated”, the “FXR-dependent activity, induction” value was “ineffective”.

For `CCCC(=O)Nc1ncnc2c1ncn2[C@@H]1O[C@@H]2COP(=O)(O)O[C@H]2[C@H]1OC(=O)CCC` [dibutyryl cAMP], the “FXR-dependent activity, induction” value (1 mM) was determined as 4 fold.

On to `C[C@H]([C@H](O)CCC(C)(C)O)[C@H]1CC[C@@]2(O)C3=CC(=O)[C@@H]4C[C@@H](O)[C@@H](O)C[C@]4(C)[C@H]3CC[C@]12C` [ecdysone], for which, under “dose not stated”, the “FXR-dependent activity, induction” value is listed as “unresponsive”.

For the compound `C=CC(C)(O)CCCC/C=C(\C)CC(C)=O` (stereo not shown) [echinolone], the “FXR-dependent activity, maximal induction” value (maximal (highest non-cytotoxic) dose) was determined as 7 fold.

`CC12CCC(C1)C(C)(C)C2=O` (stereo not shown) [fenchone]: the “FXR-dependent activity, induction” value (0.5 mM) is “inactive”.

As for `CC12CCC(C1)C(C)(C)C2O` (stereo not shown) [fenchyl alcohol], the “FXR-dependent activity, induction” value (0.5 mM) amounted to 5 fold.

On to `N#Cc1nn(-c2c(Cl)cc(C(F)(F)F)cc2Cl)c(N)c1[S+]([O-])C(F)(F)F` (stereo not shown) [fipronil], for which the “FXR-dependent activity, induction” value (25 μM) came to 20 fold.

On to `O=c1c(-c2ccc(O)cc2)coc2cc(O)cc(O)c12` [genistein], for which the “FXR-dependent CAT activity, induction” value (50 μM) is given as “unresponsive”.

As to `O=c1c(O)c(-c2ccc(O)c(O)c2)oc2c(O)c(O)cc(O)c12` [gossypetin], the “FXR-dependent CAT activity, induction” value (50 μM) is “unresponsive”.

Regarding `O=c1[nH]cnc2nc[nH]c12` [hypoxanthine], the “FXR-dependent activity, induction” value (dose not stated) is listed as “ineffective”.

`O=[N+]([O-])NC1=NCCN1Cc1ccc(Cl)nc1` [imidacloprid]: the “FXR-dependent activity, induction” value (dose not stated) was “unaffected”.

With `COP(=S)(OC)SCN1C(=O)c2ccccc2C1=O` [imidan], the “FXR-dependent activity, induction” value (dose not stated) was “inactive”.

For the compound `CC1=C[C@]23C(=O)[C@@H](C=C(COC(=O)c4ccccc4)[C@@H](O)[C@]2(O)[C@H]1OC(=O)c1ccccc1)[C@H]1[C@@H](C[C@H]3C)C1(C)C` [ingenol-3,20-dibenzoate], under “10 μM”, the “FXR-dependent activity, induction” value came out at 5 fold. The “FXR ACTIVITY (fold-induction)” value (dose 10 μM) turned out to be 5 fold-induction.

`CC1=C[C@]23C(=O)[C@@H](C=C(CO)[C@@H](O)[C@]2(O)[C@H]1O)[C@H]1[C@@H](C[C@H]3C)C1(C)C` [ingenol]: the “FXR-dependent activity, induction” value (dose not stated) is “inactive”.

Turning to `CC/C=C\C[C@H]1C(=O)CC[C@@H]1CC(=O)O` [jasmonic acid], where the note is “1 mM”, the “FXR-dependent activity, induction” value was “no effect”.

Regarding `COC(=O)C1=CC[C@H]([C@H](C)CC(=O)CC(C)C)CC1` [juvabione], the “RXR mediated transcription, increase” value (plant-derived JH agonists examined as FXR effectors) was 3 fold.

For the compound `C[C@@]12C=Cc3occc3[C@H]1CC[C@@]13C[C@@H](CC[C@H]12)[C@@](O)(CO)C3` [kahweol], the “FXR ACTIVITY (fold-induction)” value under setting [1] amounted to 10 fold-induction.

Take `O=C1C2(Cl)C3(Cl)C4(Cl)C(Cl)(Cl)C5(Cl)C3(Cl)C1(Cl)C5(Cl)C24Cl` (stereo not shown) [kepone]: the “FXR-dependent CAT activity, induction” value (5 μM) turned out to be 12 fold.

For the compound `C=C(C)C1CCC2(C)OC2C1` (stereo not shown) [limonene oxide], the “FXR-dependent activity, induction” value (400 μM) was “inactive”.

`Cl[C@H]1[C@H](Cl)[C@@H](Cl)[C@@H](Cl)[C@H](Cl)[C@H]1Cl` [lindane]: the “FXR-dependent CAT activity, induction” value (5 μM) is 5 fold.

Take `CC1CCC(C(C)C)C(O)C1` (stereo not shown) [menthol]: the “FXR-dependent activity, induction” value (0.5 mM) was “inactive”.

As for `CC/C=C\CC1C(=O)CCC1CC(=O)OC` (stereo not shown) [methyl jasmonate], the “FXR-dependent activity, induction” value (1 mM) is recorded as 17 fold. In addition, where the note is “dose 1000 μM”, the “FXR ACTIVITY (fold-induction)” value came out at 18 fold-induction.

`C=C(C)[C@@]12O[C@@]3(c4ccccc4)O[C@@H]1[C@@H]1[C@@H]4O[C@]4(CO)[C@@H](O)[C@]4(O)C(=O)C(C)=C[C@H]4[C@@]1(O3)[C@H](C)[C@H]2OC(=O)/C=C/C=C/c1ccccc1` [mezerein]: the “FXR-dependent activity, induction” value (10 μM) was found to be 3 fold.

In the case of `Clc1ccc(C(c2ccc(Cl)cc2)C(Cl)(Cl)Cl)cc1` [p,p-DDT], the “FXR-dependent CAT activity, induction” value (5 μM) was “not”.

Consider `C=C(C)[C@@H]1CC=C(CO)CC1` [perillyl alchol, perillyl alcohol], for which the “FXR ACTIVITY (fold-induction)” value (dose 300 μM, 1 = no increase over vehicle) amounted to 4 fold-induction. Moreover, the “FXR-dependent activity, induction” value (dose not stated) was 4 fold.

Consider `OCCc1ccccc1` [phenethyl alcohol], for which the “FXR-dependent activity, induction” value (400 μM) is “inert”.

In the case of `CC(C)=CC1C(C(=O)OCc2cccc(Oc3ccccc3)c2)C1(C)C` (stereo not shown) [phenothrin], the “FXR-dependent activity, induction” value (25 μM) worked out at 8 fold.

As to `CCCC(=O)O[C@@H]1[C@@H](C)[C@@]2(O)[C@@H](C=C(CO)C[C@]3(O)C(=O)C(C)=C[C@@H]23)[C@@H]2C(C)(C)[C@]12OC(=O)CCC` [phorbol 12,13-dibutyrate], the “FXR-dependent activity, induction” value (10 μM) was 2 fold.

With `CC1(C)[C@@H]2C[C@H]1[C@@](C)(O)[C@@H](O)C2` [pinane diol], the “FXR-dependent activity, induction” value (0.5 mM) is on record as 5 fold.

For `OCc1ccc2c(c1)OCO2` [piperonyl alcohol], where the note is “dose not stated”, the “FXR-dependent activity, induction” value was “inactive”.

`O=C(O)c1ccc2c(c1)OCO2` [piperonylic acid]: the “FXR-dependent activity, induction” value (dose not stated) was “inactive”.

For the compound `COc1cc2c(cc1OC)OC(C)(C)C=C2` [precocene II], the “FXR-dependent activity, induction” value (dose not stated) amounted to 15 fold. For the same compound, the half-maximal effective concentration (EC50) (read-out: EC50 for FXR-dependent CAT activity) was 150 µM.

On to `CC(COc1ccc(Oc2ccccc2)cc1)Oc1ccccn1` (stereo not shown) [pyriproxyfen], for which the “FXR ACTIVITY (fold-induction)” value (final dose of 50 ∝M, 1 = induction less than 2-fold below cytotoxic doses) is on record as 9 fold-induction.

On to `O=C(/C=C/c1ccc(O)c(O)c1)O[C@H](Cc1ccc(O)c(O)c1)C(=O)O` [rosemarinic acid], for which the “FXR-dependent activity, induction” value (dose not stated) was “ineffective”.

In the case of `C=C(C)[C@H]1Cc2c(ccc3c2O[C@@H]2COc4cc(OC)c(OC)cc4[C@@H]2C3=O)O1` [rotenone], the “FXR ACTIVITY (fold-induction)” value under setting [1] came out at 1 fold-induction. Moreover, the “FXR-dependent activity, induction” value (dose not stated) is “inactive”.

Consider `COc1cc2c(cc1OC)[C@@H]1C(=O)c3ccc(O)c(CC=C(C)C)c3O[C@@H]1CO2` [rotenonic acid], for which the “FXR-dependent CAT activity, induction” value (20 μM) came out at 20 fold. For the same compound, under setting [1], the “FXR ACTIVITY (fold-induction)” value amounted to 20 fold-induction.
